Source: patent publication US9422285B2, “Substituted pyrazolo[1,5-A]-pyridine-3-carboxamides and use thereof” (Bayer Pharma Aktiengesellschaft, priority 2014, dated 2016)
Where a name gives a salt, the structure may show the parent alone.

Molecular target: T1, recombinant guanylate cyclase reporter cell line (Rattus norvegicus, UniProt P19686+P20595)
T1 construct: expressed in transfected cells
T1 sequence (P19686 1-690): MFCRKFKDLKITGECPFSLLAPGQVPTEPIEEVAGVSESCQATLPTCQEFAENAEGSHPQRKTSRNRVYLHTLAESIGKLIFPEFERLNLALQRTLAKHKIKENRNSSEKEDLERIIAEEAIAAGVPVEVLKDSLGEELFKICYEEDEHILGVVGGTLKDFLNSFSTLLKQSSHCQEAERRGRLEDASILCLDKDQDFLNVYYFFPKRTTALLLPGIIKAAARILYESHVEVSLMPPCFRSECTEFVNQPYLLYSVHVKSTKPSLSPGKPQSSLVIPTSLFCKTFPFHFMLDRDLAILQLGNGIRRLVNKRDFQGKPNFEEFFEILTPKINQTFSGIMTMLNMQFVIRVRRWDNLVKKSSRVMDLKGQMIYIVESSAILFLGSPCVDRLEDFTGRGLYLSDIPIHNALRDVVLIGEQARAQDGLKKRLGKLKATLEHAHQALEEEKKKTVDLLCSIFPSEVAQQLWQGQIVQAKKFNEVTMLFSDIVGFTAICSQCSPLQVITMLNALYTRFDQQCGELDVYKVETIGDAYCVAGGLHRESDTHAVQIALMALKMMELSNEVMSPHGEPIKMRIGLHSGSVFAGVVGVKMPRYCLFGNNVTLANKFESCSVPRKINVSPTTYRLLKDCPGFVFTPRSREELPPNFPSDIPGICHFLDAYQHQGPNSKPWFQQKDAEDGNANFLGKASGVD
T1 sequence (P20595 1-619): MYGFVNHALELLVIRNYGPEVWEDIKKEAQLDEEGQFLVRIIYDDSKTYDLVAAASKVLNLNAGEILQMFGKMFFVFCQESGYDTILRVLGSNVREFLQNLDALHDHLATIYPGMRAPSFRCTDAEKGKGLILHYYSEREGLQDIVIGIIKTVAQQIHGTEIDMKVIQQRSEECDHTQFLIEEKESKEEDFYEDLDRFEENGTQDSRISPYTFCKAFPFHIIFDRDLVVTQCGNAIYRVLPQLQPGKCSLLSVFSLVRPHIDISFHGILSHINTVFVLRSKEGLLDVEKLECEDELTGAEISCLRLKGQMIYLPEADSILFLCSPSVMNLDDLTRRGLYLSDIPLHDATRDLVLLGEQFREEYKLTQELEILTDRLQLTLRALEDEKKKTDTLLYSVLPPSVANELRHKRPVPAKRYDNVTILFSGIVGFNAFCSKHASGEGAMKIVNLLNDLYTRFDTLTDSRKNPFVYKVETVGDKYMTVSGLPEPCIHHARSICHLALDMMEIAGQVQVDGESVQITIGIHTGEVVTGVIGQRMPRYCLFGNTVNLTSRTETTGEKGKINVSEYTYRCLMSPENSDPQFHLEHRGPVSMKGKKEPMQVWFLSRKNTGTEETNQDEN
Assay: Effect on a recombinant guanylate cyclase reporter cell line (B-2)
Assay type: cell-based
Details: in some cases mean values for individual determinations
Experimental: B-2. Effect on a Recombinant Guanylate Cyclase Reporter Cell Line
The cellular effect of the inventive compounds is determined using a recombinant guanylate cyclase reporter cell line, as described in F. Wunder et al., Anal. Biochem. 339, 104-112 (2005).
Representative MEC values (MEC=minimum effective concentration) for the inventive compounds are shown in the table below (in some cases as mean values for individual determinations): […]

| SMILES | MEC (minimum effective concentration) [µM] |
| --- | --- |
| Cc1cc(OCc2c(F)cccc2F)n2nc(C)c(C(=O)NC3CCOc4c(C)cc(F)cc43)c2c1 (racemic) [Example 148, rac-7-[(2,6-Difluorobenzyl)oxy]-N-(6-fluoro-8-methyl-3,4-dihydro-2H-chromen-4-yl)-2,5-dimethylpyrazolo[1,5-a]pyridine-3-carboxamide] | 1.0 |
| Cc1cc(OCc2c(F)ccc(F)c2F)n2nc(C)c(C(=O)NCc3ccc(Cl)nc3)c2c1 [Example 21, N-[(6-Chloropyridin-3-yl)methyl]-2,5-dimethyl-7-[(2,3,6-trifluorobenzyl)oxy]pyrazolo[1,5-a]pyridine-3-carboxamide] | 0.3 |
| Cc1cc(OCc2c(F)cccc2F)n2nc(C)c(C(=O)NC3CC(C)Nc4ccc(C(F)(F)F)nc43)c2c1 (single isomer, unassigned; ent-7) [Example 86, ent-7-[(2,6-Difluorobenzyl)oxy]-2,5-dimethyl-N-[2-methyl-6-(trifluoromethyl)-1,2,3,4-tetrahydro-1,5-naphthyridin-4-yl]pyrazolo[1,5-a]pyridine-3-carboxamide] | 3.0 |
| CCC(N)(CC)CNC(=O)c1c(C)nn2c(OCc3c(F)ccc(F)c3F)cc(C)cc12 [Example 8, N-(2-Amino-2-ethylbutyl)-2,5-dimethyl-7-[(2,3,6-trifluorobenzyl)oxy]pyrazolo[1,5-a]pyridine-3-carboxamide] | 0.3 |
| Cc1cc(OCc2c(F)ccc(F)c2F)n2nc(C)c(C(=O)NC(CO)c3ccc(F)cc3)c2c1 (racemic) [Example 30, rac-N-[1-(4-Fluorophenyl)-2-hydroxyethyl]-2,5-dimethyl-7-[(2,3,6-trifluorobenzyl)oxy]pyrazolo[1,5-a]pyridine-3-carboxamide] | 0.1 |
| Cc1cc(OCc2c(F)ccc(F)c2F)n2nc(C)c(C(=O)NCCC3(O)CCCC3)c2c1 [Example 5, N-[2-(1-Hydroxycyclopentyl)ethyl]-2,5-dimethyl-7-[(2,3,6-trifluorobenzyl)oxy]pyrazolo[1,5-a]pyridine-3-carboxamide] | 0.3 |
| Cc1cc(OCc2c(F)cccc2F)n2nc(C)c(C(=O)NNC(=O)CN3CCCC3=O)c2c1 [Example 175, 7-[(2,6-Difluorobenzyl)oxy]-2,5-dimethyl-N′-[(2-oxopyrrolidin-1-yl)acetyl]pyrazolo[1,5-a]pyridine-3-carbohydrazide trifluoroacetate] | 10 |
| CCCC(C)(N)CNC(=O)c1c(C)nn2c(OCc3c(F)cccc3F)cc(CC)cc12 (racemic) [Example 172, rac-N-(2-Amino-2-methylpentyl)-7-[(2,6-difluorobenzyl)oxy]-5-ethyl-2-methylpyrazolo[1,5-a]pyridine-3-carboxamide] | 0.3 |
| Cc1cc(OCc2c(F)cccc2F)n2nc(C)c(C(=O)N[C@@H](CC(=O)OC(C)(C)C)CC(C)C)c2c1 [Example 37, tert-Butyl (3R)-3-[({7-[(2,6-difluorobenzyl)oxy]-2,5-dimethylpyrazolo[1,5-a]pyridin-3-yl}carbonyl)amino]-5-methylhexanoate] | 10 |
| Cc1cc(OCc2c(F)ccc(F)c2F)n2nc(C)c(C(=O)NC3(c4ccc(Cl)cc4)CCCC3)c2c1 [Example 31, N-[1-(4-Chlorophenyl)cyclopentyl]-2,5-dimethyl-7-[(2,3,6-trifluorobenzyl)oxy]pyrazolo[1,5-a]pyridine-3-carboxamide] | 1.0 |
| Cc1cc(OCc2c(F)ccc(F)c2F)n2nc(C)c(C(=O)Nc3c(C)nn(CCO)c3C)c2c1 [Example 11, N-[1-(2-Hydroxyethyl)-3,5-dimethyl-1H-pyrazol-4-yl]-2,5-dimethyl-7-[(2,3,6-trifluorobenzyl)oxy]pyrazolo[1,5-a]pyridine-3-carboxamide] | 1.0 |
| COC(=O)C12CC3CC(CC(CNC(=O)c4c(C)nn5c(OCc6c(F)cccc6F)cc(C)cc45)(C3)C1)C2 [Example 155, Methyl 3-{[({7-[(2,6-difluorobenzyl)oxy]-2,5-dimethylpyrazolo[1,5-a]pyridin-3-yl}carbonyl)amino]methyl}adamantane-1-carboxylate] | 1.0 |

Continued, values first:

| MEC (minimum effective concentration) [µM] | SMILES |
| --- | --- |
| 1.0 | Cc1cc(OCc2c(F)cccc2F)n2nc(C)c(C(=O)NCC3CCc4ccccc4N3)c2c1 (racemic) [Example 82, rac-7-[(2,6-Difluorobenzyl)oxy]-2,5-dimethyl-N-(1,2,3,4-tetrahydroquinolin-2-ylmethyl)pyrazolo[1,5-a]pyridine-3-carboxamide] |
| 3.0 | Cc1cc(OCc2c(F)cccc2F)n2nc(C)c(C(=O)NC[C@@H]3CCCCN3)c2c1 [Example 129, 7-[(2,6-Difluorobenzyl)oxy]-2,5-dimethyl-N-[(2S)-piperidin-2-ylmethyl]pyrazolo[1,5-a]pyridine-3-carboxamide] |
| 10 | Cc1cc(OCc2c(F)cccc2F)n2nc(C)c(C(=O)NCC(N)c3cccc(OCCO)c3)c2c1 (racemic) [Example 72, rac-N-{2-Amino-2-[3-(2-hydroxyethoxy)phenyl]ethyl]-7-[(2,6-difluorobenzyl)oxy]-2,5-dimethylpyrazolo[1,5-a]pyridine-3-carboxamide trifluoroacetate] |
| 10 | Cc1cc(OCc2c(F)cccc2F)n2nc(C)c(C(=O)NNC3CCCC3O)c2c1 (stereo not drawn) [Example 68, 7-[(2,6-Difluorobenzyl)oxy]-N′-(2-hydroxycyclopentyl)-2,5-dimethylpyrazolo[1,5-a]pyridine-3-carbohydrazide trifluoroacetate] |
| 0.03 | Cc1cc(OCc2c(F)cccc2F)n2nc(C)c(C(=O)NC3CCOc4ncccc43)c2c1 (racemic) [Example 74, rac-7-[(2,6-Difluorobenzyl)oxy]-N-(3,4-dihydro-2H-pyrano[2,3-b]pyridin-4-yl)-2,5-dimethylpyrazolo[1,5-a]pyridine-3-carboxamide trifluoroacetate] |
| 0.03 | Cc1cc(OCc2c(F)cccc2F)n2nc(C)c(C(=O)Nc3ccnc4ccc(F)cc34)c2c1 [Example 80, 7-[(2,6-Difluorobenzyl)oxy]-N-(6-fluoroquinolin-4-yl)-2,5-dimethylpyrazolo[1,5-a]pyridine-3-carboxamide trifluoroacetate] |
| 3.0 | C=CCONC(=O)c1c(C)nn2c(OCc3c(F)cccc3F)cc(C)cc12 [Example 65, N-(Allyloxy)-7-[(2,6-difluorobenzyl)oxy]-2,5-dimethylpyrazolo[1,5-a]pyridine-3-carboxamide trifluoroacetate] |
| 1.0 | Cc1cc(OCc2c(F)cccc2F)n2nc(C)c(C(=O)NC3c4cccc(F)c4OC3C)c2c1 (stereo not drawn) [Example 111, 7-[(2,6-Difluorobenzyl)oxy]-N-(7-fluoro-2-methyl-2,3-dihydro-1-benzofur-3-yl)-2,5-dimethylpyrazolo[1,5-a]pyridine-3-carboxamide] |
| 0.3 | Cc1cc(OCc2c(F)cccc2F)n2nc(C)c(C(=O)NC3CCOc4c(C#N)cccc43)c2c1 (racemic) [Example 140, rac-N-(8-Cyano-3,4-dihydro-2H-chromen-4-yl)-7-[(2,6-difluorobenzyl)oxy]-2,5-dimethylpyrazolo[1,5-a]pyridine-3-carboxamide] |
